Measured values from patent US20170176446A1, “Methods for Determining the Oncogenic Condition of Cell, Uses Thereof, and Methods for Treating Cancer” (INSERM (INSTITUT NATIONAL DE LA SANTE ET DE LA RECHERCHE …, priority 2009, published 2017).

Legend:
ChEH [1] = molecular target: T1, ChEH (Rattus norvegicus, UniProt Q9JJ46); test: Determination of the Ki for ChEH on rat liver microsome proteins (Dixon method); assay type: biochemical; details: 150 μg rat liver microsome proteins, [14C]CEα
T1 construct: 150 μg of rat liver microsome proteins are incubated; from tissue; host or cells: rat liver microsomes
T1 sequence (Q9JJ46 1-230): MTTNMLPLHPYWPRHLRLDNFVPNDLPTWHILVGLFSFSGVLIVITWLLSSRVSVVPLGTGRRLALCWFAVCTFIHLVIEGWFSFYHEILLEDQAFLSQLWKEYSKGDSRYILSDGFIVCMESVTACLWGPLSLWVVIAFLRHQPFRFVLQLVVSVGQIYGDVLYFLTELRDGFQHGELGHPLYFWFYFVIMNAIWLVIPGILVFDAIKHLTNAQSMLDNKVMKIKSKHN

ChEH [2] = molecular target: T2, ChEH (Homo sapiens, UniProt Q15125); test: Inhibition of ChEH activity in MCF7 cells (TLC of [14C]CE conversion); assay type: cell-based; details: 48 hours, MCF7 cells
T2 construct: MCF7 tumor cells, which originate from the American Tissue Culture Collection (ATCC), were used; host or cells: MCF7
T2 sequence (Q15125 whole entry): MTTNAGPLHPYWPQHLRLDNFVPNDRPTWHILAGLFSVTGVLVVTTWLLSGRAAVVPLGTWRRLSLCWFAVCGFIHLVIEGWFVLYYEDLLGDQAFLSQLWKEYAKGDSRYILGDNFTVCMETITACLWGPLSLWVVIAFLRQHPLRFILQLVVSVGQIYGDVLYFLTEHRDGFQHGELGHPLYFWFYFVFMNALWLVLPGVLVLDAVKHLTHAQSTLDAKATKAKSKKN
Description: For this experiment, an aminoalkyl sterol included in French patent 2 838 741 (and also see: de Medina et al., J Med Chem: 2009, vol. 52, No. 23, p. 7765-7777), having the formula: 6-N-[2-(3H-imidazol-4-yl)ethylamino]cholestane-3β,5α-diol (DDA), was chosen. […]
A thin-layer chromatography was carried out, the plate of which has been reproduced in FIG. 23. On this plate, the incubation is carried out, for lane 1, with [^14C]CE; for lane 2, with [^14C]CT; for lane 3, with the vehicle solvent, which is the same as that used for assays 1 to 5; for lane 4, with [14C]CE and 0.1 μM of the aminoalkyl sterol; and for lane 5, with [^14C]CE and a concentration of 1 μM of the aminoalkyl sterol.

ChEH [3] = molecular target: T2, ChEH; test: ChEH activity on MCF7 cell lysate (homogenate); assay type: biochemical; details: 150 μg of proteins, read-out: (IC50)homogenate, ChEH inhibition
Description: Moreover, a study of this inhibition on homogenate was also carried out. The protocol is as follows: the MCF7 cells are detached with trypsin and taken up with RPMI medium containing 5% FBS. The cell suspension obtained (60 million cells) is centrifuged, washed with cold PBS and resuspended in 1 ml of […] buffer (pH=7.4; 150 mM KCl). The cells are lyzed by means of five freezing/thawing (liquid nitrogen/37° C.) cycles. The solution is centrifuged at 1200 rpm at 4° C. for 10 minutes. The supernatant is recovered and the amount of proteins is determined by the Bradford method. The measurement of the ChEH activity on MCF7 cell lysate is carried out as follows: the enzymatic activity is measured on 150 μg of proteins in a final volume of 150 μl containing […] of ChEH buffer (Tris-HCl, pH 7.4, 150 mM KCl) and 15 μl of MCF7 proteins.

OCDO = OCDO content of TS/A tumors by GC/MS; assay type: in vivo, mice; details: DDA 10 μM, 100 μl intratumorally once a day
Description: 5 volumes (relative to the mass removed) of buffer (50 mM Tris-HCl, 150 mM KCl, pH=7.4) are added. The tumors are ground and the homogenates are centrifuged for 5 minutes at 2500 rpm at 4° C. […] After centrifugation (to separate the phases), the organic phase is recovered. The organic phase is evaporated to dryness and then the residue is taken up with 0.5 ml of chloroform. The organic extracts are filtered on 0.5 ml silica cartridges. The polar sterols are eluted sequentially:
1) 0.5 ml of a hexane/chloroform mixture (1/1), 2) 0.5 ml of chloroform, 3) 0.5 ml of ethyl acetate and methanol.
The ethyl acetate fractions are evaporated, silylated (50 μl 1/1 acetonitrile/BSTFA) and then analyzed by GC/MS (2 μl) according to the conditions described above.

TS/A cells = test: Tumor size of TS/A tumors implanted in BALB/c mice, intratumoral treatment; assay type: in vivo; details: DDA 10 μM, 100 μl intratumorally once a day
Description: A cell culture of TS/A cells was first performed. These TS/A cells are mouse mammary adenocarcinomas (see Nanni P et al., Clin. Exp. Metastasis, 1983 October-December; 1(4): 373-80). The cells are cultured, at 37° C. under 5% CO2, in a DMEM medium supplemented with 2 g/liter of sodium carbonate, 1.2 mM of glutamine (pH 7.4 at 23° C.), 5% of fetal bovine serum (Gibco) and 2.5 ml of antibiotics per liter of medium (penicillin/streptomycin).
The TS/A cells are recovered with trypsin, washed twice and suspended in PBS buffer. The TS/A cells (approximately 4×10^6 […] cells/0.1 ml) are then injected subcutaneously into the flank of 6-week-old female BALB/c mice (supplied by Charles River). […] The animals (10 mice per group) are monitored regularly for tumor development. The volume of the tumors is calculated according to the following formula: L×l^2×0.5 (L is the length and l is the width of the tumor). The experiment was reproduced twice. The results are given in FIG. 18 (the arrow indicates the beginning of the treatment).

MCF7 cells = test: OCDO production by MCF7 cells incubated with [14C]CE, thin-layer chromatography; assay type: cell-based, human; details: concentration in μM in parentheses after each molecule; control = 100
Text: For assays 1 to 5 and in some of the examples given later in this patent application, MCF7 tumor cells, which originate from the American Tissue Culture Collection (ATCC), were used. […] It is desired to study the activity of ChEH in […] cells by silica thin-layer chromatography. The compounds that it is desired to visualize are the CE and CT compounds defined above. In order to visualize the spots corresponding to CE and CT on a chromatography plate, ^14C-labeled CE and CT compounds were synthesized.
In order to be used in assays 1 to 5 which follow, the cells are seeded into 6-well plates at a density of 80 000 cells in a volume of 2 ml. […] After the incubation time desired for the assay, the medium is collected, the cells are washed with cold PBS (phosphate buffer) (2 ml per well) which is pooled with the medium. The cells are then scraped into cold PBS (1 ml for 3 wells); the wells are again rinsed with cold PBS (1 ml for 3 wells). The cell suspension obtained is centrifuged at 1000 rpm for 5 min at 4° C. […] Throughout the rest of this description, the vehicle solvent used is the same as that defined above.
The aqueous and organic radioactivities are counted. The organic phases are brought to dryness under argon. The residue is resuspended in 60 μl of ethanol and then deposited, in a proportion of 20 μl per lane, on to the glass-backed silica plates (Whatman LK-6-DF, 20×20), which are used in the various assays (these plates having been preheated at 100° C. for 1 hour). The migration solvent used is ethyl acetate. The chromatography plates are placed in contact with a “phosphor-screen” plate in a cassette overnight. […] In order to evaluate the more or less dense nature of the spots obtained on the plates, the radioactivity is quantified by densitometry with the “Imagequant”™ computer program.
Generally, in order to establish the percentages of OCDO inhibition from the thin-layer chromatography (TLC) plates obtained as in assay 2, the radioactive metabolites are identified and quantified on the basis of said plates using a europium-sensitive plate of GP Phosphor screen type (GE Healthcare) and a Storm 840 phosphorimagor (GE Healthcare). The proportion of radiolabeled oxysterols is determined on the autoradiogram obtained by densitometry using the Image Quant 5.2 software. The percentage is calculated on the basis of the ratio between the amount of oxysterols quantified divided by the sum of the amounts of oxysterols (CEE+CE+CT+OCDO). Since the CEE (CE ester) originates exclusively from the CE, the percentage CE is calculated on the basis of the ratio (CE+CEE)/(CE+CEE+CT+OCDO).
Assay 2 given above was therefore completed by measuring the amounts of the products present when the MCF7 tumor cells are incubated as indicated in detail in assay 2.
In order to establish that the link that exists between, on the one hand, the ability of various compounds to inhibit OCDO in an MCF7 tumor cell and, on the other hand, their quality as a ChEH inhibitor, is well-founded, the inhibition coefficients Ki for ChEH relating to a certain number of products was calculated and the production of OCDO by MCF7 cells after incubation of the cells with the same products was measured according to the protocol defined in assay 2 of the present patent application.

CC(C)CCC[C@@H](C)[C@H]1CC[C@H]2[C@@H]3C[C@@H](NCCc4c[nH]cn4)[C@@]4(O)C[C@@H](O)CC[C@]4(C)[C@H]3CC[C@]12C [DDA, 6-N-[2-(3H-imidazol-4-yl)ethylamino]cholestane-3β,5α-diol]
Ki (ChEH [1]): 1250 ± 6 nM | inhibition of ChEH (ChEH [2]; 0.1 and 1 μM, dependent on the concentration): causes an inhibition of ChEH | IC50 (ChEH [2]; [14C]CE 0.6 μM): 600 nM | IC50 (ChEH [3]): 11200 nM | OCDO (% control) (OCDO; Day 28): 14.5 ± 3 % control | OCDO (% control) (OCDO; Day 37): 4.5 ± 3 % control | Tumor size (% control) (TS/A cells; Day 28): 65.4 ± 7 % control | Tumor size (% control) (TS/A cells; Day 37): 28.3 ± 8 % control | OCDO production by MCF-7 (% control) (MCF7 cells): <1 % control
